Numbers after ± are expanded uncertainties.
Details: for mass density: 101.33 kPa, Liquid, Pycnometric method; for surface tension liquid-gas: Ring tensiometer

CCCCCCCCCC[N+](C)(C)C.O=S(=O)([N-]S(=O)(=O)C(F)(F)F)C(F)(F)F
Details	mass density [kg/m3]	surface tension liquid-gas [mN/m]
298.15 K	1226.3 ± 26	–
300.96 K	–	35.42 ± 5.1
302.95 K	–	35.12 ± 5
303.15 K	1222.2 ± 26	–
307.75 K	–	34.81 ± 5
308.15 K	1218.6 ± 26	–
312.28 K	–	34.55 ± 4.9
313.15 K	1214.7 ± 26	–
318.08 K	–	34.2 ± 4.9
318.15 K	1210.6 ± 26	–
323.15 K	1206.3 ± 26	–
324.03 K	–	33.71 ± 4.8
328.15 K	1204.7 ± 26	–
330.53 K	–	33.36 ± 4.8
333.15 K	1200.3 ± 26	–
337.12 K	–	32.82 ± 4.7
342.53 K	–	32.51 ± 4.6
347.26 K	–	32.23 ± 4.6

CCCC[P+](CC)(CCCC)CCCC.CCOP(=O)([O-])OCC [tributylethylphosphonium diethylphosphate]
Details	mass density [kg/m3]	surface tension liquid-gas [mN/m]
296.66 K	–	33.6 ± 4.8
298.15 K	997.8 ± 26	–
302.18 K	–	33.29 ± 4.8
303.15 K	995.7 ± 26	–
307.24 K	–	33.14 ± 4.7
308.15 K	992.8 ± 26	–
312.34 K	–	32.82 ± 4.7
313.15 K	989.7 ± 26	–
318.15 K	985.8 ± 26	–
318.36 K	–	32.24 ± 4.6
323.15 K	982.6 ± 26	–
323.59 K	–	31.62 ± 4.5
328.15 K	979.5 ± 26	–
329.67 K	–	31.14 ± 4.5
333.15 K	975.8 ± 26	–
336.36 K	–	30.66 ± 4.4
343.4 K	–	30.15 ± 4.3
347.75 K	–	29.82 ± 4.3
350.86 K	–	29.59 ± 4.2

CCCCCC[N+](C)(C)C.O=S(=O)([N-]S(=O)(=O)C(F)(F)F)C(F)(F)F [hexyltrimethylammonium bis[(trifluoromethyl)sulfonyl]imide]
Details	mass density [kg/m3]	surface tension liquid-gas [mN/m]
298.15 K	1310.6 ± 26	–
300.35 K	–	35.88 ± 5.1
302.35 K	–	35.71 ± 5.1
303.15 K	1307.8 ± 26	–
304.25 K	–	35.57 ± 5.1
307.65 K	–	35.32 ± 5
308.15 K	1304 ± 26	–
311.05 K	–	35.09 ± 5
313.15 K	1299.5 ± 26	–
314.75 K	–	34.86 ± 5
318.15 K	1295.7 ± 26	34.64 ± 5
322.55 K	–	34.36 ± 4.9
323.15 K	1292.1 ± 26	–
326.25 K	–	34.14 ± 4.9
328.15 K	1287.9 ± 26	–
331.35 K	–	33.86 ± 4.8
333.15 K	1283.9 ± 26	–
333.35 K	–	33.77 ± 4.8

CCCCCC[N+](C)(C)CCC.O=S(=O)([N-]S(=O)(=O)C(F)(F)F)C(F)(F)F
Details	mass density [kg/m3]	surface tension liquid-gas [mN/m]
298.15 K	1284.6 ± 26	–
300.1 K	–	36.74 ± 5.2
302 K	–	36.58 ± 5.2
303.1 K	–	36.49 ± 5.2
303.15 K	1281.6 ± 26	–
304 K	–	36.42 ± 5.2
306 K	–	36.25 ± 5.2
308.1 K	–	36.11 ± 5.2
308.15 K	1277.5 ± 26	–
312.3 K	–	35.78 ± 5.1
313.15 K	1273.2 ± 26	–
315.2 K	–	35.55 ± 5.1
318 K	–	35.33 ± 5
318.15 K	1269.9 ± 26	–
320.6 K	–	35.14 ± 5
322.6 K	–	35.01 ± 5
323.15 K	1266 ± 26	–
328.15 K	1266 ± 26	–
333.15 K	1258.5 ± 26	–

CCCCCCCCCCCCCC[P+](CCCCCC)(CCCCCC)CCCCCC.O=S(=O)([N-]S(=O)(=O)C(F)(F)F)C(F)(F)F
Details	mass density [kg/m3]	surface tension liquid-gas [mN/m]
298.15 K	1050.1 ± 25	–
298.2 K	–	33.08 ± 4.7
303 K	–	32.57 ± 4.6
303.15 K	1048.3 ± 25	–
308 K	–	32.15 ± 4.5
308.15 K	1045.2 ± 25	–
313 K	–	31.77 ± 4.5
313.15 K	1042 ± 25	–
318 K	–	31.4 ± 4.4
318.15 K	1039.2 ± 25	–
323.15 K	1035.6 ± 25	–
323.3 K	–	31.09 ± 4.4
327.9 K	–	30.65 ± 4.3
328.15 K	1032.9 ± 25	–
332.9 K	–	30.28 ± 4.3
333.15 K	1029.6 ± 25	–
338.9 K	–	29.68 ± 4.2
344.2 K	–	29.45 ± 4.2
349.8 K	–	28.93 ± 4.1

CCCCCCCC[N+](C)(CCCCCCCC)CCCCCCCC.O=S(=O)([N-]S(=O)(=O)C(F)(F)F)C(F)(F)F
Details	mass density [kg/m3]	surface tension liquid-gas [mN/m]
298.15 K	1082.3 ± 26	–
299.46 K	–	29.06 ± 4.2
303.15 K	1080.3 ± 26	–
303.25 K	–	28.93 ± 4.1
308.15 K	1077.3 ± 26	–
310.18 K	–	28.53 ± 4.1
313.15 K	1073.8 ± 26	–
313.77 K	–	28.23 ± 4
318.15 K	1073.8 ± 26	–
318.67 K	–	27.85 ± 4
321 K	–	27.63 ± 4
323.15 K	1067.2 ± 26	–
326.3 K	–	27.18 ± 3.9
328.15 K	1063.9 ± 26	–
329.6 K	–	27.01 ± 3.9
333.15 K	1061.1 ± 26	–
336.79 K	–	26.69 ± 3.8

CCCCCCCCCCCCCC[P+](CCCCCC)(CCCCCC)CCCCCC.[Cl-] [trihexyl(tetradecyl)phosphonium chloride]
Details	mass density [kg/m3]	surface tension liquid-gas [mN/m]
297.99 K	–	33.62 ± 4.8
298.15 K	882.6 ± 25	–
302.94 K	–	33.15 ± 4.7
303.15 K	880.1 ± 25	–
307.4 K	–	32.72 ± 4.6
308.15 K	877.9 ± 25	–
312.09 K	–	32.3 ± 4.6
313.15 K	875.4 ± 25	–
315.84 K	–	32.01 ± 4.5
318.15 K	873.1 ± 25	–
319.49 K	–	31.74 ± 4.5
323.15 K	869.4 ± 25	–
323.95 K	–	31.43 ± 4.5
327.96 K	–	31.15 ± 4.4
328.15 K	866.9 ± 25	–
332.81 K	–	30.76 ± 4.4
333.15 K	864.4 ± 25	–
337.27 K	–	30.42 ± 4.3
342.09 K	–	30 ± 4.3
347.68 K	–	29.55 ± 4.2

CCn1cc[n+](C)c1.O=S(=O)([N-]S(=O)(=O)C(F)(F)F)C(F)(F)F
Details	surface tension liquid-gas [mN/m]
298.7 K	41.62 ± 5.9
302.05 K	41.38 ± 5.8
305.74 K	41.19 ± 5.8
309.16 K	41.02 ± 5.8
312.6 K	40.87 ± 5.8
316.2 K	40.67 ± 5.7
319.33 K	40.5 ± 5.7
322.63 K	40.39 ± 5.7
326.13 K	40.19 ± 5.6
331.02 K	39.94 ± 5.6

CCn1cc[n+](C)c1.O=S(=O)([O-])C(F)(F)F [1-ethyl-3-methylimidazolium trifluoromethanesulfonate]
Details	surface tension liquid-gas [mN/m]
296.28 K	44.46 ± 6.2
300.79 K	44.36 ± 6.2
304.95 K	44.2 ± 6.2
308.14 K	44.07 ± 6.2
312.41 K	43.9 ± 6.2
317.15 K	43.81 ± 6.2
321.93 K	43.64 ± 6.1
328.68 K	43.37 ± 6.1
333.64 K	43.15 ± 6.1
337.82 K	42.99 ± 6
343.49 K	42.82 ± 6
347.91 K	42.62 ± 6
353.56 K	42.49 ± 6

CCCCn1cc[n+](C)c1.F[P-](F)(F)(F)(F)F [1-butyl-3-methylimidazolium hexafluorophosphate]
Details	surface tension liquid-gas [mN/m]
298.15 K	47.92 ± 6.8
301.32 K	47.71 ± 6.8
305.79 K	47.48 ± 6.7
309.6 K	47.29 ± 6.7
315.44 K	46.92 ± 6.7
319.95 K	46.55 ± 6.6
325.06 K	46.15 ± 6.6
328.68 K	46.04 ± 6.5
332.22 K	45.81 ± 6.5
335.61 K	45.41 ± 6.5

CCCCCCCCCCCCCC[P+](CCCC)(CCCC)CCCC.CCCCCCCCCCCCc1ccccc1S(=O)(=O)[O-] [tributyl(tetradecyl)phosphonium 2-dodecylbenzenesulfonate]
Details	mass density [kg/m3]
298.15 K	938.4 ± 25
303.15 K	937.1 ± 25
308.15 K	933.7 ± 25
313.15 K	931.1 ± 25
318.15 K	928.4 ± 25
323.15 K	925.4 ± 25
328.15 K	922.8 ± 25
333.15 K	920.1 ± 25

CCCCCC[N+](CC)(CC)CC.O=S(=O)([N-]S(=O)(=O)C(F)(F)F)C(F)(F)F [triethylhexylammonium bis((trifluoromethyl)sulfonyl)imide]
Details	mass density [kg/m3]	surface tension liquid-gas [mN/m]
298.15 K	1279.3 ± 26	–
299.54 K	–	35.17 ± 5
302.65 K	–	34.9 ± 5
303.15 K	1275.4 ± 26	–
307.05 K	–	34.45 ± 4.9
308.15 K	1271.9 ± 26	–
313.15 K	1267.6 ± 26	–
313.73 K	–	33.88 ± 4.8
318.15 K	1264.4 ± 26	–
319.84 K	–	33.49 ± 4.8
323.15 K	1260.8 ± 26	–
324.94 K	–	32.98 ± 4.7
328.15 K	1257.4 ± 26	–
329.34 K	–	32.72 ± 4.7
333.15 K	1253 ± 26	–
335.04 K	–	32.47 ± 4.6
341.93 K	–	31.98 ± 4.6
347.11 K	–	31.45 ± 4.5

CCCCCC[n+]1ccn(C)c1.O=S(=O)([N-]S(=O)(=O)C(F)(F)F)C(F)(F)F
Details	surface tension liquid-gas [mN/m]
297.22 K	35.98 ± 5.1
301.22 K	35.79 ± 5
305.48 K	35.54 ± 5
309.14 K	35.35 ± 5
312.48 K	35.15 ± 4.9
316.28 K	35.03 ± 4.9
319.87 K	34.84 ± 4.9
323.57 K	34.63 ± 4.9
327.48 K	34.45 ± 4.9
331.24 K	34.26 ± 4.8
334.91 K	34.07 ± 4.8
340.92 K	33.76 ± 4.8
346.42 K	33.44 ± 4.7

CCCC[N+](C)(C)C.O=S(=O)([N-]S(=O)(=O)C(F)(F)F)C(F)(F)F [butyltrimethylammonium bis(trifluoromethylsulfonyl)imide]
Details	mass density [kg/m3]	surface tension liquid-gas [mN/m]
298.15 K	1374.7 ± 27	–
298.35 K	–	38.05 ± 5.4
302.33 K	–	37.9 ± 5.4
303.15 K	1368.6 ± 27	–
306.15 K	–	37.8 ± 5.4
308.15 K	1365.6 ± 27	–
309.93 K	–	37.69 ± 5.4
313.15 K	1361.4 ± 27	–
314.79 K	–	37.48 ± 5.3
318.15 K	1357.3 ± 27	–
320.39 K	–	37.28 ± 5.3
323.15 K	1353.7 ± 27	–
326.4 K	–	37.09 ± 5.3
328.15 K	1349.7 ± 27	–
330.16 K	–	36.91 ± 5.3
333.15 K	1343.9 ± 27	–
335.64 K	–	36.68 ± 5.2
340.58 K	–	36.5 ± 5.2

CCCCCCCCCCCCCC[P+](CCCCCC)(CCCCCC)CCCCCC.N#C[N-]C#N [tetradecyl(trihexyl)phosphonium dicyanamide]
Details	mass density [kg/m3]	surface tension liquid-gas [mN/m]
295.06 K	–	35.22 ± 5
298.15 K	920.9 ± 25	–
299.35 K	–	34.85 ± 5
302.95 K	–	34.58 ± 4.9
303.15 K	917.3 ± 25	–
305.04 K	–	34.45 ± 4.9
308.15 K	916.3 ± 25	–
310.4 K	–	34.06 ± 4.9
313.15 K	913.1 ± 25	–
314.39 K	–	33.8 ± 4.8
318.15 K	910.1 ± 25	–
318.38 K	–	33.5 ± 4.8
322.47 K	–	33.24 ± 4.8
323.15 K	907.5 ± 25	–
326.14 K	–	32.94 ± 4.7
327.42 K	–	32.61 ± 4.7
328.15 K	905 ± 25	–
333.02 K	–	32.2 ± 4.6
333.15 K	902.4 ± 25	–
338.6 K	–	31.66 ± 4.5
343.13 K	–	31.33 ± 4.5
348.47 K	–	31.09 ± 4.4

Reference: the NIST ThermoML archive (doi:10.1021/je7003098)
